Results published in ChEMBL document CHEMBL3886359, “Treatment of respiratory disorders using TRPA1 antagonists” (2015).

Key:
Format in all cases: cell-based
[1] = target: Transient receptor potential cation channel subfamily M member 8 (Homo sapiens, UniProt Q7Z2W7); test: (§1) Radiometric Calcium Assay: The inhibition of TRPA1 receptor activation was measured as inhibition of allylisothiocyanate (AITC) induced cellular uptake of radioactive calcium. Test compounds were dissolved in DMSO to prepare 10 mM stock solution and then diluted using plain medium with 0.1% BSA and 1.8 mM CaCl2 to get desired concentration. Final concentration of DMSO in the reaction was 0.5% (v/v). Human TRPA1 expressing CHO cells were grown in F-12 DMEM medium with 10% FBS, 1% penicillin-streptomycin solution, and 400 ug/ml of G-418. Cells were seeded 24 h prior to the assay in 96 well plates so as to get 50,000 cells per well on the day of experiment. Cells were treated with test compounds for 10 min followed by addition of AITC at a final concentration of 30 micromolar and 5 uCi/ml 45Ca+2 for 3 min at 25° C. Cells were washed and lysed using buffer containing 1% Triton X-100, 0.1% deoxycholate and 0.1% SDS. Radioactivity in the lysate was measured in Packard Top count.
Sequence of Transient receptor potential cation channel subfamily M member 8 (Q7Z2W7 whole entry): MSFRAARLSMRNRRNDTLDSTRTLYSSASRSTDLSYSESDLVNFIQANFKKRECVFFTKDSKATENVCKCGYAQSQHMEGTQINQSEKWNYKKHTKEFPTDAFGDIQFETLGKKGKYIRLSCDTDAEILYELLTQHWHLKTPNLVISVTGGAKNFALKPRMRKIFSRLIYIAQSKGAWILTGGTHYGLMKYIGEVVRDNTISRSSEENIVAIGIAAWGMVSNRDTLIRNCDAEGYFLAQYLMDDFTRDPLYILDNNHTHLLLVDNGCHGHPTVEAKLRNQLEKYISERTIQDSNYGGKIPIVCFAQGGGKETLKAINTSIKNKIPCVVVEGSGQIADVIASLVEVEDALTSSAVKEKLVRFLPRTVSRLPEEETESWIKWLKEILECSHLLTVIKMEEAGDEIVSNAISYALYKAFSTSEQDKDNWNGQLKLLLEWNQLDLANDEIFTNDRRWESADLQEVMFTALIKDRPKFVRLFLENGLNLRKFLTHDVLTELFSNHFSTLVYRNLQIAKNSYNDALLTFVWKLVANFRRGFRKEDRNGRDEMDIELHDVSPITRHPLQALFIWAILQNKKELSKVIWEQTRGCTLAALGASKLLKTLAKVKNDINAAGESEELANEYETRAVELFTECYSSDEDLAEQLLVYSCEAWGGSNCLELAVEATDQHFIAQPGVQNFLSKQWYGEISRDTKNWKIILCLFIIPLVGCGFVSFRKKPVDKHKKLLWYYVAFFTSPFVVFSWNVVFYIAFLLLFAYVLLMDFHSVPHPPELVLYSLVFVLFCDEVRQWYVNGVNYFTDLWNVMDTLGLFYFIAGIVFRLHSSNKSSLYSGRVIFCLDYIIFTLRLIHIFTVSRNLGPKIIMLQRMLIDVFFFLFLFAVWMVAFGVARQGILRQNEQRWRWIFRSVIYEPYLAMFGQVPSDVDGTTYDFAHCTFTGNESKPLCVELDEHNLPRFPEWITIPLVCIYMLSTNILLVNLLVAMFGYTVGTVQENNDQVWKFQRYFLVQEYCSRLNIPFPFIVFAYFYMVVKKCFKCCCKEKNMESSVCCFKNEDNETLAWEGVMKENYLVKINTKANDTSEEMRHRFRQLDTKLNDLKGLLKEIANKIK

[2] = target: T1, Transient receptor potential cation channel subfamily V member 3 (Homo sapiens, UniProt Q8NET8); test: as §1
T1 sequence (Q8NET8 whole entry): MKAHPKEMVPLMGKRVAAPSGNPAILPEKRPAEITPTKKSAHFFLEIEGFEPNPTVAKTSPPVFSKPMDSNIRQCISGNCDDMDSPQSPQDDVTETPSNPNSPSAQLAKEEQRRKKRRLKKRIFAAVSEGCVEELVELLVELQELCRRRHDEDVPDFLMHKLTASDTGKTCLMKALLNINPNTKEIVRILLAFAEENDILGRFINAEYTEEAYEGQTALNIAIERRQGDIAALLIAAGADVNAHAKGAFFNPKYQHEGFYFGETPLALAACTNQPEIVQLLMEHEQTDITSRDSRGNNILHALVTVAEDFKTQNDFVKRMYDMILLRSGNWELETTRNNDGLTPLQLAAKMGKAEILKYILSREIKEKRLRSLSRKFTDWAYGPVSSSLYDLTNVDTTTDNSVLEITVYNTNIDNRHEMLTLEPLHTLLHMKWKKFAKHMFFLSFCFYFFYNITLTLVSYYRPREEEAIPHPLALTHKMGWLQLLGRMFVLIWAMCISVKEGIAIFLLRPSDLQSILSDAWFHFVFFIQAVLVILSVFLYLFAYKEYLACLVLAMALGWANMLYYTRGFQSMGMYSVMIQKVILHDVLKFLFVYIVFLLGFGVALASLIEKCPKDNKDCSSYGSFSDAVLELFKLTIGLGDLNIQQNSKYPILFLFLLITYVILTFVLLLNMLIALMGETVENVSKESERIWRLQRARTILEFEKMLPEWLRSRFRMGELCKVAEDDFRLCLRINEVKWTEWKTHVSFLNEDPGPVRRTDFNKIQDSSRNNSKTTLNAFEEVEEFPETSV

[3] = target: Transient receptor potential cation channel subfamily V member 4 (Homo sapiens, UniProt Q9HBA0); test: as §1
Sequence of Transient receptor potential cation channel subfamily V member 4 (Q9HBA0 whole entry): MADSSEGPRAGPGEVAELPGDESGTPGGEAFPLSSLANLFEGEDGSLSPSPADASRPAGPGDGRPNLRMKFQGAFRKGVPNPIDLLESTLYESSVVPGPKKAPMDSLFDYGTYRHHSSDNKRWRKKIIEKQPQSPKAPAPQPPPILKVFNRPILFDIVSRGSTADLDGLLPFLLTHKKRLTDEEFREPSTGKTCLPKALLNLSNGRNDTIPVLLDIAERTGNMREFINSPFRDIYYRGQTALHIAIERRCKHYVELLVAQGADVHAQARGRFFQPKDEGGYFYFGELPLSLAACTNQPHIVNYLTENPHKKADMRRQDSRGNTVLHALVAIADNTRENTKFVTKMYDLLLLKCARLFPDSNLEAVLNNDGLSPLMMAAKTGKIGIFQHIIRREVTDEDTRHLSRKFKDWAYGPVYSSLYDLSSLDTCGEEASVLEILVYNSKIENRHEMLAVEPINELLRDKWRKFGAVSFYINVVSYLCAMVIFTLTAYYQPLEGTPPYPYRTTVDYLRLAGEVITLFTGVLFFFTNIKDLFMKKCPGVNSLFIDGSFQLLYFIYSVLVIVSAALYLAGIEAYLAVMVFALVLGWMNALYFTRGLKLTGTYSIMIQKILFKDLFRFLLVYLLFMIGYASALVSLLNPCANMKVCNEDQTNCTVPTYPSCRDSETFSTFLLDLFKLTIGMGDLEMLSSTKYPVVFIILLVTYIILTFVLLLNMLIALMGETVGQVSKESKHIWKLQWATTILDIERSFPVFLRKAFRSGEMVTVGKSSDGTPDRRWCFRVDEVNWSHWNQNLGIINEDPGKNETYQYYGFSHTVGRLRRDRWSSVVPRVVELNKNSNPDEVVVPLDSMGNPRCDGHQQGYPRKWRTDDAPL

[4] = target: Transient receptor potential cation channel subfamily V member 1 (Homo sapiens, UniProt Q8NER1); test: as §1
Sequence of Transient receptor potential cation channel subfamily V member 1 (Q8NER1 whole entry): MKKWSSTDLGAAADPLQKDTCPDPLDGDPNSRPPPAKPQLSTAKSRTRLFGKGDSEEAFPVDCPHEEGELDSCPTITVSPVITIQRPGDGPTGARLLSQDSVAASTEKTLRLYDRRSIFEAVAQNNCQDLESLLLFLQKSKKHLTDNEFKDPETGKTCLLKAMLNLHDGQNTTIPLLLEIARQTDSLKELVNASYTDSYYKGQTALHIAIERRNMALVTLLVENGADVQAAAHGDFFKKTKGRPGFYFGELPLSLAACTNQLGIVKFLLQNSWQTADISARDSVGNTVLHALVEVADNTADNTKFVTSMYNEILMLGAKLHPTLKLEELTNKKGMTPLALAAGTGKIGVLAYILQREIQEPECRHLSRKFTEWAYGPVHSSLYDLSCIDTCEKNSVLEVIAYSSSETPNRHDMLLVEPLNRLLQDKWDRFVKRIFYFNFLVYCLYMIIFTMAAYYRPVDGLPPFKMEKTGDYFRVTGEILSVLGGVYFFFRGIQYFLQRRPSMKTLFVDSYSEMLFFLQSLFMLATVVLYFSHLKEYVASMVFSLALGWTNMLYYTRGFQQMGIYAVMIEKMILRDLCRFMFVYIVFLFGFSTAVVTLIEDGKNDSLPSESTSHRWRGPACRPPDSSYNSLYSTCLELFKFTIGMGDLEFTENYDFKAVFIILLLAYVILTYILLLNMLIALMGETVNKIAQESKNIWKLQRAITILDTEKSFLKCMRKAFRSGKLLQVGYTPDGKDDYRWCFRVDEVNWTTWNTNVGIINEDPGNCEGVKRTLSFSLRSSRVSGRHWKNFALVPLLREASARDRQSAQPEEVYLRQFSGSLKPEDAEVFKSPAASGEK

[5] = target: Transient receptor potential cation channel subfamily A member 1 (Homo sapiens, UniProt O75762); test: as §1
Sequence of Transient receptor potential cation channel subfamily A member 1 (O75762 whole entry): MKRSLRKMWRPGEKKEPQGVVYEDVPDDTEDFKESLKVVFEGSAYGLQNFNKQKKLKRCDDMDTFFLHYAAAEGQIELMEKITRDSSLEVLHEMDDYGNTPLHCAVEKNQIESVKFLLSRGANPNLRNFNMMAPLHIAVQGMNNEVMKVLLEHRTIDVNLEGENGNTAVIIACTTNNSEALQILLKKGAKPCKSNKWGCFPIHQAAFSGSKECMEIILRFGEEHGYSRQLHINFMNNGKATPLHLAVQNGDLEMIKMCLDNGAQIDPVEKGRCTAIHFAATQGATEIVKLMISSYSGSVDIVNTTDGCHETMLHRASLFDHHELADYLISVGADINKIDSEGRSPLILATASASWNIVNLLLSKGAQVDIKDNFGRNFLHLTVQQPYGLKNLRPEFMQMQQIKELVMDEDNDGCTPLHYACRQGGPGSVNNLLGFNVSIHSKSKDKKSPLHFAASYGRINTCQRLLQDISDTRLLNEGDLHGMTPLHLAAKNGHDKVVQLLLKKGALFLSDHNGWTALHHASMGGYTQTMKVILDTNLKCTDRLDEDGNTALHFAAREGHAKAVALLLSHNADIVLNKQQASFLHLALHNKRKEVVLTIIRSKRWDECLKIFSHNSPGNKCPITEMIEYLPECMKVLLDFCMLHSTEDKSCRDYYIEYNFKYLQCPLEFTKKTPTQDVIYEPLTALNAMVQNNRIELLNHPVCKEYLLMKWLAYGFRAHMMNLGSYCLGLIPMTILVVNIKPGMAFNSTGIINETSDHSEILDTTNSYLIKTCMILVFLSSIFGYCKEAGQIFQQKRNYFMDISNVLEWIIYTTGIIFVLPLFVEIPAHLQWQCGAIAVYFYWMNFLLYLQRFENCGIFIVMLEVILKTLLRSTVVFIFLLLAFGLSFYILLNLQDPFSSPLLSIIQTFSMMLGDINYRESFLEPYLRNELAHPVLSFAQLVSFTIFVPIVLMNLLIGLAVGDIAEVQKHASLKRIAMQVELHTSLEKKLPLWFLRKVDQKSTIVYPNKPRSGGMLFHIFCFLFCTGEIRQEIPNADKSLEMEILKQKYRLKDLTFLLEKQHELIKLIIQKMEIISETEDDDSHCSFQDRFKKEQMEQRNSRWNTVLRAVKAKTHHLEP

| Compound | IC50 [1] [µM] | IC50 [2] [µM] | IC50 [3] [µM] | IC50 [4] [µM] | IC50 [5] [µM] |
| --- | --- | --- | --- | --- | --- |
| Cn1c(=O)c2c(CC(=O)Nc3nc(-c4ccc(C(F)(F)F)c(F)c4F)cs3)nsc2n(C)c1=O | > 10 | 2.83 | 0.132 | 17.7 | – |
| Cc1oc2c(c1CC(=O)Nc1nc(-c3ccc(OC(F)(F)F)c(Cl)c3)cs1)c(=O)n(C)c(=O)n2C | > 10 | 4.45 | 5.74 | > 10 | – |
| Cn1c(=O)c2c(CC(=O)Nc3nc(-c4ccc(F)c(C(F)(F)F)c4F)cs3)csc2n(C)c1=O | – | 2.52 | 3.04 | – | – |
| Cc1oc2c(c1CC(=O)/N=c1\scc(-c3ccc(OC(F)(F)F)c(Cl)c3)n1COC(=O)[C@@H](N)C(C)C)c(=O)n(C)c(=O)n2C | > 10 | 2.81 | 2.35 | > 10 | – |
| Cn1nc2c(c1CC(=O)/N=c1\scc(-c3ccc(F)c(C(F)(F)F)c3F)n1COP(=O)(O)O)c(=O)n(C)c(=O)n2C | > 10 | > 10 | > 10 | > 10 | 1.58 |
| Cc1oc2c(c1CC(=O)/N=c1\scc(-c3ccc(OC(F)(F)F)c(Cl)c3)n1COP(=O)(O)O)c(=O)n(C)c(=O)n2C | > 10 | > 10 | > 10 | > 10 | 1.18 |
